As usually defined, the viscosity is the internal friction of a fluid under shear.

For series [1] the following is noted: 100 kPa, Liquid, Falling or rolling sphere viscometry.
A short description of series [2]: xn = mol fraction of the nth substance listed. Conditions: 100 kPa, Liquid, Falling or rolling sphere viscometry, x2 = 0.

± gives the expanded uncertainty stated by the source.

Take `CCCCCCn1cc[n+](C)c1.F[B-](F)(F)F` [1-hexyl-3-methylimidazolium tetrafluoroborate]: the viscosity in series [1] (293.15 K) is given as 293 ± 20 mPa·s; in series [1] (298.15 K), 216 ± 13 mPa·s; in series [1] (303.15 K) it was 163 ± 9 mPa·s; in series [1] (313.15 K) it was 96.7 ± 4.3 mPa·s; in series [1] (323.15 K), 61.8 ± 2.5 mPa·s; in series [1] (333.15 K), 41.9 ± 1.7 mPa·s. Further, the viscosity is on record as 29.5 ± 1.2 mPa·s in series [1] (343.15 K) and 21.7 ± 0.9 mPa·s in series [1] (353.15 K).

In the case of `CC#N` [acetonitrile] + CCCCCCn1cc[n+](C)c1.F[B-](F)(F)F, the viscosity was determined as 0.39 ± 0.02 mPa·s in series [2] (293.15 K); 0.37 ± 0.02 mPa·s in series [2] (298.15 K); 0.35 ± 0.02 mPa·s in series [2] (303.15 K); 0.33 ± 0.01 mPa·s in series [2] (313.15 K); 0.3 ± 0.01 mPa·s in series [2] (323.15 K); 0.28 ± 0.01 mPa·s in series [2] (333.15 K). The viscosity in series [2] (343.15 K) came to 0.26 ± 0.01 mPa·s.

On to `C[S+](C)[O-]` [dimethyl sulfoxide], for which the viscosity in series [1] (293.15 K) turned out to be 2.21 ± 0.09 mPa·s; in series [1] (298.15 K), 2.01 ± 0.08 mPa·s; in series [1] (303.15 K) it was 1.84 ± 0.07 mPa·s; in series [1] (313.15 K) it was 1.56 ± 0.06 mPa·s; in series [1] (323.15 K), 1.34 ± 0.05 mPa·s; in series [1] (333.15 K), 1.17 ± 0.05 mPa·s. Also, the viscosity was 1.03 ± 0.04 mPa·s in series [1] (343.15 K) and 0.92 ± 0.04 mPa·s in series [1] (353.15 K).

Regarding `CC#N` [acetonitrile], the viscosity in series [1] (293.15 K) was 0.39 ± 0.02 mPa·s; in series [1] (298.15 K) it was 0.37 ± 0.02 mPa·s; in series [1] (303.15 K), 0.35 ± 0.02 mPa·s; in series [1] (313.15 K), 0.33 ± 0.01 mPa·s; in series [1] (323.15 K) it was 0.3 ± 0.01 mPa·s; in series [1] (333.15 K), 0.28 ± 0.01 mPa·s. Moreover, in series [1] (343.15 K), the viscosity came out at 0.26 ± 0.01 mPa·s.

For `C[S+](C)[O-]` [dimethyl sulfoxide] + CCCCCCn1cc[n+](C)c1.F[B-](F)(F)F, the viscosity came to 2.21 ± 0.09 mPa·s in series [2] (293.15 K); 2.01 ± 0.08 mPa·s in series [2] (298.15 K); 1.84 ± 0.07 mPa·s in series [2] (303.15 K); 1.56 ± 0.06 mPa·s in series [2] (313.15 K); 1.34 ± 0.05 mPa·s in series [2] (323.15 K); 1.17 ± 0.05 mPa·s in series [2] (333.15 K). Also, the viscosity in series [2] (343.15 K) came to 1.03 ± 0.04 mPa·s; in series [2] (353.15 K), 0.92 ± 0.04 mPa·s.

Values taken from the NIST ThermoML archive (doi:10.1021/acs.jced.8b00684).
